From ChEMBL document CHEMBL1201862, “PubChem BioAssay data set” (2004)
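Where inhibition never reached the appropriate level, the endpoint shown equals the highest concentration tested. Otherwise, values were interpolated linearly from a five-concentration, 48-hour dose response in 96-well plates. At the GI50, growth is halved.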 The source made the active and inactive calls. No stated cut-off is given here; in the data, active = GI50 up to about 1.1 µM and inactive = higher. Peptide text beside a SMILES is read from it. * marks the point of attachment. Cbz = O=C(OCc1ccccc1)*; Boc = CC(C)(C)OC(=O)*; OBn = c1ccc(CO*)cc1

How the values were obtained:
Assay in all cases: DTP human tumour cell line panel, 48 h
Hs-578T = tested on: Hs-578T
HOP-62 = tested on: HOP-62
MDA-MB-435 = tested on: MDA-MB-435
HT-29 = tested on: HT-29
PC-3 = tested on: PC-3
SK-MEL-2 = tested on: SK-MEL-2
CAKI-1 = tested on: CAKI-1
U-251 = tested on: U-251
OVCAR-3 = tested on: OVCAR-3
SW-620 = tested on: SW-620
OVCAR-8 = tested on: OVCAR-8
HCT-15 = tested on: HCT-15
EKVX = tested on: EKVX
SK-MEL-28 = tested on: SK-MEL-28
SF-295 = tested on: SF-295
K562 = tested on: K562
M14 = tested on: M14
IGROV-1 = tested on: IGROV-1
CCRF-CEM = tested on: CCRF-CEM
SR = tested on: SR

SMILES	GI50 (Hs-578T)	GI50 (HOP-62)	GI50 (MDA-MB-435)	GI50 (HT-29)	GI50 (PC-3)	GI50 (SK-MEL-2)	GI50 (CAKI-1)	GI50 (U-251)	GI50 (OVCAR-3)	GI50 (SW-620)	GI50 (OVCAR-8)	GI50 (HCT-15)	GI50 (EKVX)	GI50 (SK-MEL-28)	GI50 (SF-295)	GI50 (K562)	GI50 (M14)	GI50 (IGROV-1)	GI50 (CCRF-CEM)	GI50 (SR)
COc1cc2nc(-c3cccs3)nc(N3CCN(c4ccccc4C(F)(F)F)CC3)c2cc1OC	89.9 µM (inactive)	> 100 µM (inactive)	52.8 µM (inactive)	> 100 µM (inactive)	79.3 µM (inactive)	> 100 µM (inactive)	25.2 µM (inactive)	> 100 µM (inactive)	21.5 µM (inactive)	> 100 µM (inactive)	93.3 µM (inactive)	> 100 µM	53.7 µM (inactive)	> 100 µM (inactive)	51.2 µM (inactive)	83.6 µM (inactive)	> 100 µM (inactive)	25.9 µM (inactive)	7.23 µM (inactive)	–
CN(C(=O)CC(=O)CP(=O)(c1ccccc1)c1ccccc1)c1ccccc1	> 100 µM (inactive)	> 100 µM (inactive)	> 100 µM (inactive)	> 100 µM (inactive)	> 100 µM (inactive)	–	> 100 µM (inactive)	> 100 µM (inactive)	> 100 µM (inactive)	> 100 µM (inactive)	> 100 µM (inactive)	> 100 µM	> 100 µM (inactive)	> 100 µM (inactive)	> 100 µM (inactive)	> 100 µM (inactive)	> 100 µM (inactive)	> 100 µM (inactive)	> 100 µM (inactive)	> 100 µM (inactive)
Cc1nc(O)c2ncn(CCO)c2n1	> 100 µM (inactive)	> 100 µM (inactive)	> 100 µM (inactive)	> 100 µM (inactive)	> 100 µM (inactive)	–	> 100 µM (inactive)	> 100 µM (inactive)	> 100 µM (inactive)	> 100 µM (inactive)	> 100 µM (inactive)	> 100 µM	> 100 µM (inactive)	> 100 µM (inactive)	> 100 µM (inactive)	> 100 µM (inactive)	> 100 µM (inactive)	> 100 µM (inactive)	> 100 µM (inactive)	> 100 µM (inactive)
O=c1c(Sc2c(SCSc3cnc4ccccc4c3Sc3c[nH]c4ccccc4c3=O)cnc3ccccc23)c[nH]c2ccccc12	62.8 µM (inactive)	94.2 µM (inactive)	31.1 µM (inactive)	> 100 µM (inactive)	> 10 µM (inactive)	> 10 µM (inactive)	> 100 µM (inactive)	25.5 µM (inactive)	> 100 µM (inactive)	44.7 µM (inactive)	> 100 µM (inactive)	96.8 µM	> 100 µM (inactive)	22.9 µM (inactive)	> 100 µM (inactive)	–	> 100 µM (inactive)	88.9 µM (inactive)	12.7 µM (inactive)	0.877 µM (active)
NC(=O)C1=C(O)C[C@@H]2CC3Cc4cccc(O)c4C(=O)C3=C(O)[C@]2(O)C1=O (stereo partly drawn)	2.81 µM (inactive)	3.31 µM (inactive)	10.1 µM (inactive)	0.339 µM (active)	1.8 µM (inactive)	1.86 µM (inactive)	10.6 µM (inactive)	0.962 µM (active)	2.77 µM (inactive)	3.57 µM (inactive)	2.92 µM (inactive)	0.479 µM	0.861 µM (active)	4 µM (inactive)	1.85 µM (inactive)	1.81 µM (inactive)	1.84 µM (inactive)	2 µM (inactive)	0.873 µM (active)	–
O=c1c2c([N+](=O)[O-])cccc2nc2[nH]c3ccccc3n12	26.5 µM (inactive)	70.8 µM (inactive)	> 75 µM (inactive)	63.2 µM (inactive)	57.8 µM (inactive)	14.4 µM (inactive)	14.6 µM (inactive)	20.2 µM (inactive)	20.7 µM (inactive)	> 75 µM (inactive)	14.5 µM (inactive)	53.6 µM	30.2 µM (inactive)	> 75 µM (inactive)	23.1 µM (inactive)	> 75 µM (inactive)	> 75 µM (inactive)	11.9 µM (inactive)	> 75 µM (inactive)	54.2 µM (inactive)
c1ccc(C2=C(c3ccccc3)P(c3ccccc3)C2)cc1 (stereo not drawn)	40.5 µM (inactive)	> 100 µM (inactive)	57.4 µM (inactive)	> 100 µM (inactive)	48.1 µM (inactive)	> 100 µM (inactive)	> 100 µM (inactive)	68.1 µM (inactive)	78.7 µM (inactive)	64 µM (inactive)	89.7 µM (inactive)	> 100 µM	–	> 100 µM (inactive)	41 µM (inactive)	–	> 100 µM (inactive)	64.3 µM (inactive)	22.5 µM (inactive)	22.8 µM (inactive)
CO/C(N)=C(C#N)/N=C/c1ccsc1	52.2 µM (inactive)	> 100 µM (inactive)	36.2 µM (inactive)	40.7 µM (inactive)	81.1 µM (inactive)	37.3 µM (inactive)	37.2 µM (inactive)	40 µM (inactive)	30.6 µM (inactive)	53.2 µM (inactive)	59 µM (inactive)	34.3 µM	54.6 µM (inactive)	85.5 µM (inactive)	> 100 µM (inactive)	30.4 µM (inactive)	29 µM (inactive)	52.6 µM (inactive)	24 µM (inactive)	–
Cc1onc(-c2c(F)cccc2Cl)c1C(=O)N[C@@H]1C(=O)N2[C@@H]1SC(C)(C)[C@@H]2C(=O)O	44 µM (inactive)	> 100 µM (inactive)	> 100 µM (inactive)	> 100 µM (inactive)	> 100 µM (inactive)	> 100 µM (inactive)	> 100 µM (inactive)	> 100 µM (inactive)	> 100 µM (inactive)	> 100 µM (inactive)	> 100 µM (inactive)	> 100 µM	> 100 µM (inactive)	> 100 µM (inactive)	> 100 µM (inactive)	> 100 µM (inactive)	> 100 µM (inactive)	> 100 µM (inactive)	–	> 100 µM (inactive)
COC(=O)C(CCCCNC(=O)OCc1ccccc1)NC(=O)C(CCC(=O)OCc1ccccc1)NC(=O)OC(C)(C)C (stereo not drawn) (Boc-Glu(OBn)-Lys(Cbz)-OMe; configuration not given here)	27.7 µM (inactive)	15 µM (inactive)	> 100 µM (inactive)	> 100 µM (inactive)	> 100 µM (inactive)	–	86.7 µM (inactive)	> 100 µM (inactive)	73.1 µM (inactive)	> 100 µM (inactive)	> 100 µM (inactive)	> 100 µM	> 100 µM (inactive)	64 µM (inactive)	64.4 µM (inactive)	> 100 µM (inactive)	> 100 µM (inactive)	> 100 µM (inactive)	–	> 100 µM (inactive)
Cc1cn([C@H]2C=C[C@@H](CO)O2)c(=O)[nH]c1=O [STAVUDINE]	> 1000 µM (inactive)	> 1000 µM (inactive)	> 1000 µM (inactive)	> 1000 µM (inactive)	> 1000 µM (inactive)	> 1000 µM (inactive)	307 µM (inactive)	> 1000 µM (inactive)	> 1000 µM (inactive)	418 µM (inactive)	> 1000 µM (inactive)	> 1000 µM	> 1000 µM (inactive)	–	> 1000 µM (inactive)	> 1000 µM (inactive)	> 1000 µM (inactive)	> 1000 µM (inactive)	469 µM (inactive)	780 µM (inactive)
